Like-named read-outs stand apart in the source and are kept apart here.
Key:
[1] = tested on: LPS induced neuroinflammation; experiment: LPS induced neuroinflammation: cytokine ELISA of brain homogenates; format: in vivo, mouse; settings: 25 mg/kg i.v. alternate days, day 7
Method: (§1) Animals and lipopolysaccharide induced neuroinflammation: Male C57/6J mice weighing 32 to 37 grams were housed five per cage at a temperature of 22±2° C. with 12 hour light/12 hour dark cycles with free access to laboratory food and water. Lipopolysaccharides (LPS) from Escherichia coli 026:B6, =10,000 EU/mg, purified by phenol extraction was purchased from Sigma (Sigma Aldrich, Mo., USA). The mice were randomly divided into seven groups: LPS, LPS+GA-1 or GA-2 or CP-1 or CP-2 or CP-3 or TAT. The LPS was administered intraperitoneally at […] in 100 μl of sterile saline followed by corn oil in the morning daily for six days. The GA or CP was administered intravenously at 25 mg/kg in 100 μl of sterile saline on alternate days. Additional control group included mice receiving saline alone. All animals were sacrificed on day 7.
Enzyme linked immunosorbent assay for cytokines: Frozen brain tissue was homogenized in RIPA lysis buffer (50 mmol/LTris-HCl, pH 6.8, 150 mmol/L NaCl, 5 mmol/L EDTA, 0.5% sodium deoxycholate, 0.5% NP-40) supplemented with a cocktail containing protease and phosphatase inhibitors (Chemicon, Millipore) on ice and then centrifuged at 16,000×g for 30 min. Supernatant was stored at −80° C. until further analysis. […]

[2] = tested on: LPS induced neuroinflammation; experiment: LPS induced neuroinflammation: immunohistochemistry of hippocampal gliosis; format: in vivo, mouse; settings: 25 mg/kg intravenously on alternate days; for CD11b+p65+ glial cells in the hippocampus: day 7; for GFAP+ astroglial cells in the hippocampus / Iba1+ microglial cells in the hippocampus: day 7, vs control peptide or untreated
Method: as §1
Histology and immunohistochemistry: The mice were sacrificed on day 7 by intra-cardial perfusion of 25 ml of 0.9% saline. Brain from each mouse was removed, one half was immediately frozen and the other half fixed in 4% paraformaldehyde for 24 h and later in 10% neutral buffered formalin for additional 24 h. Fixed tissues were subsequently processed for paraffin embedding. Tissue sections (5μ) stained with Harris's haematoxylin and counterstained with eosin were assessed for inflammation.
Immunohistochemistry: Serial 5μ thick coronal sections of each brain specimen were immunostained for markers of microglial cells, astrocytes and NF-κB p65. Briefly, after deparaffinization and hydration sections were subjected to antigen retrieval by microwave incubation in 10 mM sodium citrate buffer (pH 6.0) followed by sequential incubation in 30% hydrogen peroxide and blocking buffer (Enzo biosciences,) to reduce non-specific binding. The sections were then stained with the following primary monoclonal antibodies from EMD Millipore Corporation, Temecula, Calif., USA: anti-Iba-1 (AIF1 clone: Cat. #MABN92) or anti-glial fibrillary acidic protein (GFAP) clone GA5 (Cat. #MAB3402, Millipore) or anti-CD11b (Cat. #MABF513) clone M1/70 or anti-NF-κB p65 subunit clone 12H11 (Cat. #MAB3026). For mono-staining of Iba-1 and GFAP, detection was with the use of IHC select immunoperoxidase secondary detection system (Millipore). The peroxidase conjugated streptavidin-biotin method was used and brown staining was considered positive. For dual staining of CD11b and NF-κB p65 detection was achieved using the […]® (mouse-HRP/rabbit-AP) IHC kit (Catalog #: ADI-950-100, ENZO Lifesciences, Farmingdale, N.Y., USA). For each marker, to confirm the specificity of the antibodies, a separate set of sections from each group were incubated with only the secondary antibodies, a condition in which no staining was present.
Quantitative analysis of staining intensity: Images of the IHC stained sections were captured using the NIKON Multiphoton microscope with attached DS Ri2 camera. Five areas encompassing the hippocampus of each brain section were analyzed using the ImageJ Software. The number and the relative optical density of Iba1+ and GFAP+ glial cells was determined using the multi-point tool and the IHC-tool box. A training for brown/red color was performed prior to measurement to define the threshold for positive selection. Regions of interest encompassing the hippocampus were identified in each section, and the corresponding images were quantified using integrated optical density, normalized to the background optical density. Measurement of pixel intensity was restricted to the DAB or AP stained pixels of cells within defined circularity. Five consecutive coronal sections were assessed for each mouse.

[3] = tested on: Phospho-NF-κB p65 (Ser536); experiment: LPS induced neuroinflammation: Phospho-NF-κB p65 ELISA of brain homogenates; format: in vivo, mouse; settings: 25 mg/kg i.v. alternate days, day 7
Method: as §1, with “All animals were sacrificed on day 7.” left out
NF-κB assay: Brain homogenates processed as above were assessed by the Cell Signaling Technology PathScan® Phospho-NF-κB p65 (Ser^536) Sandwich ELISA kit following manufacturer's protocol (Cell Signaling Technology, Boston, Mass.). […] After extensive washing, the captured phospho-NF-κB p65 protein was detected by incubating with horse radish peroxidase (HRP) conjugated NF-κB p65 rabbit mAb followed by washing and color development using the TMB substrate. Absorbance at 450 nm was measured using a microplate reader (Model 680; Bio-Rad Laboratories, Hercules, Calif., USA). […]

U373 cells = format: cell-based, human
Method: Lactate dehydrogenase (LDH) assay: To detect direct GA-induced cell lysis we performed LDH release assays (Roche Molecular Diagnostics). […] Approximately 5×10^4 U373 cells/well were cultured in 96-well plates in the presence of increasing concentrations of individual GA or control peptide from 0.5 μM to 500 μM. Cells treated with 2% triton-X 100 (Sigma Aldrich, St. Louis, Mo.) for 10 minutes served as positive control. Untreated cells served as controls for spontaneous LDH-release. Specific LDH-release was calculated according to the following formula: LDH-release %=100*(GA or control peptide treated cells—untreated cells)/(positive control-untreated cells). The IC50 values were extrapolated by logarithmic estimation. The LD50 in mg/kg was predicted using the formula, Log (LD50)=0.506×(log IC50)+0.475.
Effects of PGA on membrane integrity and apoptosis: The top five PGA were covalently synthesized with the cell penetrating TAT (transcriptional transactivation) peptide to facilitate intracellular delivery (Genescript, N.J.). Membrane integrity of U373 microglial cells exposed to increasing concentration of each PGA from 0.5 μm to 500 μM was assessed by the leakage of intracellular lactate dehydrogenase (LDH) into culture medium (Roche, Ind.).

HFNC = experiment: Morphology of HFNC under inverted bright field microscope; format: cell-based, human
Aβ1-42 exposed HFB cells = experiment: Cytokines in culture medium of Aβ1-42 exposed HFB; format: cell-based, human; settings: PGA at IC50 concentration
[4] = Example 9, PGA synthesized with TAT, read-out: IC50 of LDH release extrapolated from regression analysis
[5] = concentration stated for use in HFNC cultures, Example 11, read-out: IC50 concentration

Row | Substance | IFN-γ in brain tissue [1] [pg/mL] | IL-6 in brain tissue homogenates [1] [pg/mL] | IL-12 in brain homogenates [1] [pg/mL] | TNF-α in brain homogenates [1] [pg/mL] | CD11b+p65+ glial cells in the hippocampus [2] | GFAP+ astroglial cells in the hippocampus [2] | Iba1+ microglial cells in the hippocampus [2] | absorbance suggestive of activated p65 in brain protein extract [3] | IC50 (U373 cells; [4]) [µM] | IC50 (U373 cells; [5]) [µM] | morphology of HFNC (HFNC) | AIL-1p concentration in culture supernatant (not shown) (Aβ1-42 exposed HFB cells) | AIL-6 concentration in culture supernatant (Aβ1-42 exposed HFB cells)
1 | Ac-EPAPESPQV-NH2 [GA-2] | 3125.1 ± 815 | 19.6 ± 0.84 | 101.3 ± 15.9 | 1199.2 ± 356.4 | significantly reduced in number and intensity | reduced | reduced | 0.12+/−0.07 |  |  |  |  | 
2 | Ac-EPAPESPQV-NH2 [PGA-4] |  |  |  |  |  |  |  |  | 1.5 | 102 | did not affect the morphology | significantly lower | significantly lower
3 | Ac-EPAPLAPYG-NH2 [GA-1] | 2863.2 ± 697.5 | 18.7 ± 2 | 92.0 ± 9.3 | 1500.1 ± 476 | significantly reduced in number and intensity | reduced | reduced | 0.098+/−0.03 |  |  |  |  | 
4 | Ac-EPAPLAPYG-NH2 [PGA-2] |  |  |  |  |  |  |  |  | 1.95 | 169 | did not affect the morphology | significantly lower | significantly lower

From patent US11478526B2, “Methods of reducing neuroinflammation or toxicity induced by amyloid beta (abeta) using glucocorticoid induced leucine zipper (GILZ) analog peptides” (INDIANA UNIVERSITY RESEARCH AND TECHNOLOGY CORPORATION, priority 2016, dated 2022)
